Experiments:
Test in all cases: relative viability (nuclei count vs DMSO), 5 days (fraction); higher = more cells survive
AZD8055 + Luminespib = compound: COc1ccc(-c2ccc3c(N4CCOC[C@@H]4C)nc(N4CCOC[C@@H]4C)nc3n2)cc1CO [AZD8055] + CCNC(=O)c1noc(-c2cc(C(C)C)c(O)cc2O)c1-c1ccc(CN2CCOCC2)cc1 [Luminespib] (partner 0.01 µM)
Outline: (§1)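 Relative viability divides the nuclei count in treated wells by that in vehicle wells. Lung cancer cell lines were seeded in 1536-well plates, dosed by pin tool the next day, and fixed and stained after 5 days in one step with final 0.05% Triton X-100, 1% formaldehyde and 1 ug/ml Hoechst. Dosing was a single drug or a fixed anchor-drug dose plus five library-drug doses (not always all listed) in √10 steps, and values are medians of duplicate plates imaged at 4×.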

AZD8055 + Bortezomib = compound: COc1ccc(-c2ccc3c(N4CCOC[C@@H]4C)nc(N4CCOC[C@@H]4C)nc3n2)cc1CO [AZD8055] + CC(C)C[C@H](NC(=O)[C@H](Cc1ccccc1)NC(=O)c1cnccn1)B(O)O [Bortezomib] (partner 0.002 µM)
Outline: as §1

AZD8055 + Dasatinib = compound: COc1ccc(-c2ccc3c(N4CCOC[C@@H]4C)nc(N4CCOC[C@@H]4C)nc3n2)cc1CO [AZD8055] + Cc1nc(Nc2ncc(C(=O)Nc3c(C)cccc3Cl)s2)cc(N2CCN(CCO)CC2)n1 [Dasatinib] (partner 0.075 µM)
Outline: as §1

AZD8055 + Palbociclib = compound: COc1ccc(-c2ccc3c(N4CCOC[C@@H]4C)nc(N4CCOC[C@@H]4C)nc3n2)cc1CO [AZD8055] + CC(=O)c1c(C)c2cnc(Nc3ccc(N4CCNCC4)cn3)nc2n(C2CCCC2)c1=O [Palbociclib] (partner 0.5 µM)
Outline: as §1

Cell Line	relative viability (AZD8055 + Luminespib; first compound 0.01 µM)	relative viability (AZD8055 + Luminespib; first compound 0.03162 µM)	relative viability (AZD8055 + Luminespib; first compound 0.1 µM)	relative viability (AZD8055 + Luminespib; first compound 0.3162 µM)	relative viability (AZD8055 + Luminespib; first compound 1 µM)	relative viability (AZD8055 + Bortezomib; first compound 0.01 µM)	relative viability (AZD8055 + Bortezomib; first compound 0.03162 µM)	relative viability (AZD8055 + Bortezomib; first compound 0.1 µM)	relative viability (AZD8055 + Bortezomib; first compound 0.3162 µM)	relative viability (AZD8055 + Bortezomib; first compound 1 µM)	relative viability (AZD8055 + Dasatinib; first compound 0.01 µM)	relative viability (AZD8055 + Dasatinib; first compound 0.03162 µM)	relative viability (AZD8055 + Dasatinib; first compound 0.1 µM)	relative viability (AZD8055 + Dasatinib; first compound 0.3162 µM)	relative viability (AZD8055 + Dasatinib; first compound 1 µM)	relative viability (AZD8055 + Palbociclib; first compound 0.01 µM)	relative viability (AZD8055 + Palbociclib; first compound 0.03162 µM)	relative viability (AZD8055 + Palbociclib; first compound 0.1 µM)	relative viability (AZD8055 + Palbociclib; first compound 0.3162 µM)	relative viability (AZD8055 + Palbociclib; first compound 1 µM)
COR-L23	0.773	0.625	0.381	0.118	0.137	1.2	0.834	0.779	0.236	0.168	0.581	0.44	0.309	0.137	0.164	0.319	0.226	0.199	0.126	0.124
NCI-H661	0.971	0.906	0.886	0.424	0.367	1.09	0.619	0.758	0.396	0.295	0.845	0.867	0.633	0.368	0.305	0.37	0.368	0.303	0.291	0.362
NCI-H1993	0.74	0.593	0.497	0.402	0.471	0.886	0.706	0.599	0.568	0.586	0.528	0.448	0.505	0.524	0.542	0.596	0.47	0.39	0.408	0.404
NCI-H1437	1.28	1.26	1.23	0.775	0.365	0.611	0.549	0.422	0.206	0.209	0.498	0.444	0.275	0.187	0.124	0.358	0.434	0.338	0.221	0.203
UMC-11	1	0.659	0.477	0.229	0.268	0.824	0.662	0.397	0.215	0.195	0.521	0.381	0.302	0.252	0.224	0.341	0.32	0.299	0.295	0.288
201T	0.979	1.01	0.814	0.421	0.42	1.12	1.1	1.11	0.881	0.811	0.537	0.564	0.501	0.398	0.416	0.354	0.314	0.278	0.251	0.303
ChaGo-K-1	0.611	0.604	0.533	0.423	0.297	1.03	1.12	1.09	0.87	0.647	0.614	0.537	0.433	0.375	0.352	1.01	0.87	0.864	0.728	0.652
NCI-H1650	0.204	0.196	0.206	0.203	0.253	0.299	0.182	0.215	0.208	0.214	0.317	0.302	0.292	0.19	0.265	0.317	0.323	0.254	0.18	0.205

From the supplement of paper PMC10307832
